Reference: US10500198B2, “Bis-benzylidine piperidone proteasome inhibitor with anticancer activity” (The Johns Hopkins University, priority 2013, dated 2019)
pIC50: −log10 of the molar value.

Assays:
[1] = Pharmacokinetic measurements, plasma; format: in vivo, mouse; settings: 20 mg/kg oral, BALB/c mice
[2] = tested on: HeLa cells; experiment: Drug combination index assay; format: cell-based, human; settings: 48 hr, read-out: IC50 (single agent, Compusyn)
Protocol: The combination indices and a normalized isobologram were calculated using Compusyn software (www.combosyn.com).

[3] = tested on: purified recombinant UCH37 (with or without RPN13) or purified RP; experiment: Ub-AMC hydrolysis assay; format: biochemical
Protocol: FIGS. 1 A-D show percent cell viability of RPMI-8226, ANBL6, and their respective in vitro selected bortezomib-resistant cell lines RPMI-8226-V10R and ANBL6-V10R as a function of 48 hr treatment with the indicated compounds. FIGS. 1 E-H show percent cell viability of indicated MM cell lines as a function of 48 hr treatment with the indicated compounds. […] Actin was used as a loading control. […] In FIG. 9C-E, purified 20S proteasomes were treated for 30 min with or without compounds (1 μM) prior to the addition of the specific fluorogenic substrate for chymotryptic (9C), tryptic (9D) or PGPH (9E) hydrolytic proteasome capacities. Mean±SD fluorescence associated with AMC released from the substrate was measured at 45 min. […] DMSO was added to all samples to a final concentration of 0.1% (upper panel). The effect of DMSO is highlighted by including ubiquitin—AMC (0.5 μM) hydrolysis with 2 nM UCH37 lacking DMSO (orange, bottom panel). In FIG. 9H, purified 19S RP (500 nM) in buffer was treated with corresponding compounds 30 min at 37° C. and AMC cleavage was measured with a fluorometer for 20 min. Ubal was used as a positive control.
Reaction mixtures contained 500 nM of the purified 19S RP (R&D Systems) in 19S enzyme assay buffer and 1 μM Ub-AMC. Release of free AMC by the enzyme reaction was determined by measuring its fluorescence at 380 nm (excitation) and 440 nm (emission). […]

[4] = tested on: TC-1 tumor; experiment: TC-1 tumor in C57BL6 mice; format: in vivo, mouse
Protocol: For TC-1 tumors, C57BL/6 mice (8/group) were challenged subcutaneously with 5×10^4 TC-1 cells/mice. Tumors grew for approximately 7 days until they were palpable, whereupon the mice were weighed and treatment was initiated. Tumor size was measured with a digital caliper and calculated based on the formula: [largest diameter×(perpendicular diameter)2]π/6. Nude mice (8 per group) were inoculated with 1×10^6 EΩ-Luciferase cells i.p. in 100 μL PBS. At day 3 mice were imaged for basal level luminescence expression. […] NOG mice (5 per group) were inoculated with 1×10^6 NCI-H929-GFP-Luc cells i.v., and after 4 weeks, mice were imaged for their luciferase activity and divided into two groups.
Splenocytes were prepared and stimulated with HPV16 E7aa49-57 peptide (1 μg/mL) at the presence of GolgiPlug (BD Pharmingen) overnight at 37° C. The cells were first stained with PE-conjugated anti-mouse CD 8α (BD Pharmingen), then permeabilized, fixed and intracellularly stained with FITC-conjugated anti-mouse IFN-γ (BD Pharmingen). The data were acquired with FACS Calibur and analyzed with CellQuest software.

[5] = Complete blood counts and blood chemistry of C57BL/6 mice carrying TC-1 tumor; settings: C57BL/6 mice with TC-1 tumor; nine doses every third day: RA190 40 mg/kg p.o., Bortezomib 1.5 mg/kg i.p.; mean ± SD, n = 3;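 note: blood drawn from the heart after euthanasia, cell counts read on an automated hemocytometer, heparinized plasma analyzed on an automated clinical chemistry analyzer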

Cl.N[C@@H](Cc1ccccc1)C(=O)N1CC(=Cc2ccc(Cl)c(Cl)c2)C(=O)C(=Cc2ccc(Cl)c(Cl)c2)C1 [RA190, 3,5-bis(3,4-dichlorobenzylidene)-1-(S-2-amino-3-phenyl)-piperidin-4-one-HCl salt]
AUC [1]: 634 ng·h/mL | C1/F [1]: 527 mL/min/kg | Cmax [1]: 133 ng/mL | T1/2β [1]: 2.6 h | Ud/F [1]: 117.3 L/kg | pIC50 [2]: 6.74 | degradation of Ub-AMC [3]: minimally affected | polyubiquitinated proteins in tumor lysates ([4]; i.p. 20 mg/kg daily for 7 days, western blot): dramatically elevated | weight gain and spontaneous E7-specific CD8+ T cell response versus vehicle ([4]; oral 40 mg/kg every third day): did not differ significantly | final tumor weight ([4]; oral 40 mg/kg every third day, after 14-day treatment period): 727 ± 101 mg | TC-1 tumor growth versus vehicle ([4]; oral 40 mg/kg every third day, p<0.001): significantly inhibited | ALBNEW (Albumin) [5]: 2.76 ± 0.23 | ALPNEW (Alkaline Phosphatase) [5]: 55.33 ± 6.50 | ALTNEW (Alanine Aminotransferase) [5]: 31.33 ± 2.30 | AMYL (Amylase) [5]: 621.33 ± 127 | ASTNEW (Aspartate aminotransferase) [5]: 50.33 ± 4.93 | BA(Basophils) [5]: 0.023 ± 0.011 | BUNNEW (Blood Urea Nitrogen) [5]: 26 ± 5.29 | CA (Calcium) [5]: 8.56 ± 0.23 | CHOL (Cholesterol) [5]: 67 ± 4.58 | CK_NEW (Creatinine Kinase) [5]: 131 ± 65.50 | CREAT (Creatinine) [5]: 0.46 ± 0.057 | EO (Eosinophils) [5]: 0.10 ± 0.01 | GGTNEW (Gamma-Glutamyl Transferase) [5]: 5.33 ± 0.57 | GLU (Glucose) [5]: 170.66 ± 6.11 | HCT(Hematocrit) [5]: 50.36 ± 2.45 | HDLNEW (High Density Lipoprotein) [5]: 40.33 ± 4.72 | Hb (Hemoglobin) [5]: 13.26 ± 1.00 | LDH (lactate Dehydrogenase) [5]: 172.06 ± 14.29 | LY(Lymphocytes) [5]: 1.87 ± 0.69 | MCH (Mean corpuscular hemoglobin) [5]: 13.60 ± 0.53 | MCHC (mean corpuscular hemoglobin concentration) [5]: 26.33 ± 0.75 | MCV (Mean corpuscular Volume) [5]: 51.66 ± 2.63 | MO(Monocytes) [5]: 0.25 ± 0.07 | MPV (Mean Platelet Volume) [5]: 5.36 ± 0.06 | NE(Neutrophils) [5]: 2.69 ± 0.45 | PLT (Platelet) [5]: 907 ± 45.92 | RBC (red Blood Cells) [5]: 9.77 ± 0.76 | RDW (Red Blood Cell Distribution Width) [5]: 18.00 ± 0.52 | TBIL1 (Total bilirubin) [5]: 0.233 ± 0.057 | TPROT (Total protein) [5]: 4.46 ± 0.11 | UA (Uric Acid) [5]: 2.86 ± 0.41 | WBC(White Blood Cells) [5]: 7.62 ± 4.17
